Results reported in patent publication US20240174690A1, “ANNULATED 2-AMINO-3-CYANO THIOPHENES AND DERIVATIVES FOR THE TREATMENT OF CANCER” (BOEHRINGER INGELHEIM INTERNATIONAL GMBH, priority 2021, published 2024).

Biological target: KRAS (G12D)::SOS1 (Homo sapiens (Human), UniProt P01116, G12D)
Test: KRAS::SOS1 AlphaScreen binding assay, KRAS G12D
From the text: This assay can be used to examine the potency with which compounds according to the invention binding to (mutated) KRAS inhibit the protein-protein interaction between SOS1 and (mutated) KRAS e.g., KRAS WT, KRAS G12C, KRAS G12D, KRAS G12V, KRAS G13D. […] Low IC50 values in this assay setting are indicative of strong inhibition of protein-protein interaction between SOS1 and KRAS:
These assays measure the inhibitory effect of compounds on KRAS mutant protein-protein interactions using the Alpha Screen technology by Perkin Elmer.
The following (mutant) enzyme forms of KRAS and interacting proteins are used in these assays at the given concentrations: • KRAS (G12D) 1-169, N-terminal 6His-tag, C-terminal avi-tag (Xtal BioStructures, Inc.); final assay concentration 10 nM and SOS1 564-1049, N-terminal 229 GST-tag, TEV cleavage site (Viva Biotech Ltd); final assay concentration 5 nM; • KRAS (G12C) 1-169, N-terminal 6His-tag for purification, cleaved off, C-terminal avi-tag, biotinylated, mutations: C51S, C80L, C118S (in house); final assay concentration 7.5 nM and SOS1 564-1049, N-terminal 229 GST-tag, TEV cleavage site (Viva Biotech Ltd); final assay concentration 5 nM; • KRAS (G12V) 1-169, N-terminal 6His-tag for purification, cleaved off, C-terminal avi-tag, biotinylated, TEV cleavage site, mutation: C118S, GDP loaded (in house); final assay concentration 10 nM and SOS1 564-1049, N-terminal 229 GST-tag, TEV cleavage site (Viva Biotech Ltd); final assay concentration 10 nM; • KRAS (G13D) 1-169, N-terminal 6His-tag for purification, cleaved off, C-terminal avi-tag, biotinylated, TEV cleavage site, mutation: C118S, GDP loaded (in house); final assay concentration 10 nM and SOS1 564-1049, N-terminal 229 GST-tag, TEV cleavage site (Viva Biotech Ltd); final assay concentration 10 nM; • KRAS (WT) 1-169, N-terminal 6His-tag for purification, cleaved off, C-terminal avi-tag, biotinylated, TEV cleavage site, mutation: C118S, GDP loaded (in house); final assay concentration 10 nM and SOS1 564-1049, N-terminal 229 GST-tag, TEV cleavage site (Viva Biotech Ltd); final assay concentration 10 nM.
Test compounds dissolved in DMSO are dispensed onto assay plates (Proxiplate 384 PLUS, white, PerkinElmer; 6008289) using an Access Labcyte Workstation with the Labcyte Echo 55×. For the chosen highest assay concentration of 100 μM, 150 nL of compound solution are transferred from a 10 mM DMSO compound stock solution. A series of eleven fivefold dilutions per compound are transferred to the assay plate, compound dilutions are tested in duplicates. DMSO are added as backfill to a total volume of 150 nL.
The assays run on a fully automated robotic system in a darkened room below 100 Lux. To 150 nl of compound dilution 10 μl of a mix including KRAS mutant protein, SOS1 (final assay concentrations see above) and GDP nucleotide (Sigma G7127; final assay concentration 10 μM) in assay buffer (1×PBS, 0.1% BSA, 0.05% Tween 20) are added into columns 1-24.
After 30 minutes incubation time 5 μl of Alpha Screen bead mix in assay buffer are added into columns 1-23. Bead mix consists of AlphaLISA Glutathione Acceptor Beads (PerkinElmer, Cat No AL109) and AlphaScreen Streptavidin Donor Beads (PerkinElmer Cat No 6760002) in assay buffer at a final assay concentration of 10 μg/ml each.
Plates are kept at room temperature in a darkened incubator. After an additional 60 minutes incubation time the signal is measured in a PerkinElmer Envision HTS Multilabel Reader using the AlphaScreen specs from PerkinElmer.
Each plate contains up to 16 wells of a negative control depending on the dilution procedure (platewise or serial) (DMSO instead of test compound; with KRAS mutant::SOS1 GDP mix and bead mix; column 23) and 16 wells of a positive control (DMSO instead of test compound; with KRAS mutant::SOS1 GDP mix w/o bead mix; column 24).
As internal control known inhibitors of KRAS mutant::SOS1 interaction can be measured on each compound plate. […]

Chain of KRAS (G12D)::SOS1 (P01116 other isoform, or with tags, fused parts or gaps G12D): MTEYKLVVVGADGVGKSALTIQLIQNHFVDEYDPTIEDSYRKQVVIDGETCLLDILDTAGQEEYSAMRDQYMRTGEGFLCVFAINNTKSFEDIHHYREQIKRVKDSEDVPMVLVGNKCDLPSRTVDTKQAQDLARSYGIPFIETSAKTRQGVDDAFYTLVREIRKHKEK

| SMILES | IC50 |
| --- | --- |
| C[C@H](Oc1cc(-c2cn(C3COC3)nn2)nc(-c2noc3c2CCC[C@@]32CCCc3sc(N)c(C#N)c32)n1)[C@@H]1CCCN1C [II-100] | 6 nM |
| C[C@H](Oc1cc(N2CC[C@H](N(C)C)C2)nc(-c2onc3c2CCC[C@@]32CCCc3sc(N)c(C#N)c32)n1)[C@@H]1CCCN1C [I-11] | 1 nM |
| C[C@H](Oc1cc(-c2ccn(C3CC3)n2)nc(-c2noc3c2CCC[C@@]32CCCc3sc(N)c(C#N)c32)n1)[C@@H]1CCCN1C [II-98] | 4 nM |
| C[C@H](Oc1cc(-n2cnc3cccnc32)nc(-c2noc3c2CCC[C@@]32CCCc3sc(N)c(C#N)c32)n1)[C@@H]1CCCN1C [II-65] | 9 nM |
| C[C@H](Oc1cc(N2CCC[C@@H](O)C2)nc(-c2noc3c2CCC[C@@]32CCCc3sc(N)c(C#N)c32)n1)[C@@H]1CCCN1C [II-59] | 2 nM |
| COCc1cn(-c2cc(O[C@@H](C)[C@@H]3CCCN3C)nc(-c3noc4c3CCC[C@@]43CCCc4sc(N)c(C#N)c43)n2)nn1 [II-121] | 3 nM |
| C[C@H](Oc1cc(-c2ccn(C3COC3)n2)nc(-c2noc3c2CCC[C@@]32CCCc3sc(N)c(C#N)c32)n1)[C@@H]1C[C@H](F)CN1C [II-83] | 20 nM |
| C[C@H](Oc1cc(C2=CCOCC2)nc(-c2noc3c2CCC[C@@]32CCCc3sc(N)c(C#N)c32)n1)[C@@H]1CCCN1C [II-67] | 3 nM |
| C[C@H](Oc1cc(C2CCOCC2)nc(-c2noc3c2CCC[C@@]32CCCc3sc(N)c(C#N)c32)n1)[C@@H]1CCCN1C [II-76] | 3 nM |
| C[C@H](Oc1cc(N2CCNC[C@]23CCOC3)nc(-c2noc3c2CCC[C@@]32CCCc3sc(N)c(C#N)c32)n1)[C@@H]1CCCN1C [II-50] | 1 nM |
| C[C@H](Oc1cc(-c2cnn(C)c2)nc(-c2noc3c2CCC[C@@]32CCCc3sc(N)c(C#N)c32)n1)[C@@H]1CCCN1C [II-74] | 6 nM |
| C[C@H](Oc1cc(-n2cccc3cnnc2-3)nc(-c2noc3c2CCC[C@@]32CCCc3sc(N)c(C#N)c32)n1)[C@@H]1CCCN1C [II-92] | 14 nM |
| C[C@H](Oc1cc(-c2ccn(C3COC3)n2)nc(-c2noc3c2CCC[C@@]32CCCc3sc(N)c(C#N)c32)n1)[C@@H]1CCCN1C [II-109] | 3 nM |
| C[C@H](Oc1cc(N2CCNC[C@@]23CCOC3)nc(-c2noc3c2CCC[C@@]32CCCc3sc(N)c(C#N)c32)n1)[C@@H]1CCCN1C [II-51] | 1 nM |
| C[C@H](Oc1cc(-n2cc(Cn3ccnc3)nn2)nc(-c2noc3c2CCC[C@@]32CCCc3sc(N)c(C#N)c32)n1)[C@@H]1CCCN1C [II-113] | 2 nM |
| C[C@H](O)Cn1ccc(-c2cc(O[C@@H](C)[C@@H]3CCCN3C)nc(-c3noc4c3CCC[C@@]43CCCc4sc(N)c(C#N)c43)n2)n1 [II-112] | 1 nM |
| CO[C@@H]1C[C@@H]([C@H](C)Oc2cc(-c3cnn(C)n3)nc(-c3noc4c3CCC[C@@]43CCCc4sc(N)c(C#N)c43)n2)N(C)C1 [II-62] | 7 nM |
| C[C@H](Oc1cc(-n2cc(Cn3cncn3)nn2)nc(-c2noc3c2CCC[C@@]32CCCc3sc(N)c(C#N)c32)n1)[C@@H]1CCCN1C [II-124] | 2 nM |
| C[C@H](Oc1cc(-n2ccnc2Cl)nc(-c2noc3c2CCC[C@@]32CCCc3sc(N)c(C#N)c32)n1)[C@@H]1CCCN1C [II-93] | 3 nM |
| CO[C@@H]1C[C@@H]([C@H](C)Oc2cc(-n3ccnc3)nc(-c3noc4c3CCC[C@@]43CCCc4sc(N)c(C#N)c43)n2)N(C)C1 [II-58] | 3 nM |
| C[C@H](Oc1cc(-n2ccc(C#N)n2)nc(-c2noc3c2CCC[C@@]32CCCc3sc(N)c(C#N)c32)n1)[C@@H]1CCCN1C [II-102] | 3 nM |
| CC(=O)N1CC=C(c2cc(O[C@@H](C)[C@@H]3CCCN3C)nc(-c3noc4c3CCC[C@@]43CCCc4sc(N)c(C#N)c43)n2)CC1 [II-81] | 5 nM |
| C[C@H](Oc1cc(-n2ccncc2=O)nc(-c2noc3c2CCC[C@@]32CCCc3sc(N)c(C#N)c32)n1)[C@@H]1CCCN1C [II-116] | 2 nM |
| Cc1cn(C)nc1-c1cc(O[C@@H](C)[C@@H]2CCCN2C)nc(-c2noc3c2CCC[C@@]32CCCc3sc(N)c(C#N)c32)n1 [II-68] | 9 nM |
| C[C@H](Oc1cc(N2CC[C@@H](O)C2)nc(-c2noc3c2CCC[C@@]32CCCc3sc(N)c(C#N)c32)n1)[C@@H]1CCCN1C [II-66] | 1 nM |

More lines, now with the values ahead:

| IC50 | SMILES |
| --- | --- |
| 2 nM | C[C@H](Oc1cc(N2CCC[C@H](O)C2)nc(-c2noc3c2CCC[C@@]32CCCc3sc(N)c(C#N)c32)n1)[C@@H]1CCCN1C [II-57] |
| 2 nM | C[C@H](Oc1cc(N2CCN3CCC3C2)nc(-c2onc3c2CCC[C@@]32CCCc3sc(N)c(C#N)c32)n1)[C@@H]1CCCN1C (some centres unmarked) [I-9] |
| 4 nM | C[C@H](Oc1cc(N2CCC(C#N)C2)nc(-c2noc3c2CCC[C@@]32CCCc3sc(N)c(C#N)c32)n1)[C@@H]1CCCN1C (some centres unmarked) [II-99] |
| 9 nM | Cc1cn(-c2cc(O[C@@H](C)[C@@H]3CCCN3C)nc(-c3noc4c3CCC[C@@]43CCCc4sc(N)c(C#N)c43)n2)nn1 [II-106] |
| 1 nM | C[C@H](Oc1cc([C@H]2CCOC2)nc(-c2noc3c2CCC[C@@]32CCCc3sc(N)c(C#N)c32)n1)[C@@H]1CCCN1C [II-88] |
| 6 nM | C[C@H](Oc1cc(-c2ccn(-c3ccsc3)n2)nc(-c2noc3c2CCC[C@@]32CCCc3sc(N)c(C#N)c32)n1)[C@@H]1CCCN1C [II-84] |
| 2 nM | Cc1nccn1-c1cc(O[C@@H](C)[C@@H]2CCCN2C)nc(-c2noc3c2CCC[C@@]32CCCc3sc(N)c(C#N)c32)n1 [II-79] |
| 1 nM | C[C@H](Oc1cc(N2CCNCC23CCOC3)nc(-c2onc3c2CCC[C@@]32CCCc3sc(N)c(C#N)c32)n1)[C@@H]1CCCN1C (some centres unmarked) [I-10] |
| 2 nM | C[C@H](Oc1cc(-c2ccn(C[C@@H](C)O)n2)nc(-c2noc3c2CCC[C@@]32CCCc3sc(N)c(C#N)c32)n1)[C@@H]1CCCN1C [II-117] |
| 7 nM | C[C@H](Oc1cc(-c2cncs2)nc(-c2noc3c2CCC[C@@]32CCCc3sc(N)c(C#N)c32)n1)[C@@H]1CCCN1C [II-80] |
| 4 nM | CO[C@@H]1C[C@@H]([C@H](C)Oc2cc(-c3ccn(C4COC4)n3)nc(-c3noc4c3CCC[C@@]43CCCc4sc(N)c(C#N)c43)n2)N(C)C1 [II-107] |
| 2 nM | C[C@H](Oc1cc(N2CCCC2=O)nc(-c2noc3c2CCC[C@@]32CCCc3sc(N)c(C#N)c32)n1)[C@@H]1CCCN1C [II-73] |
| 2 nM | Cc1nc(-c2cc(O[C@@H](C)[C@@H]3CCCN3C)nc(-c3noc4c3CCC[C@@]43CCCc4sc(N)c(C#N)c43)n2)cs1 [II-103] |
| 2 nM | C[C@H](Oc1cc(-c2cc[nH]n2)nc(-c2noc3c2CCC[C@@]32CCCc3sc(N)c(C#N)c32)n1)[C@@H]1CCCN1C [II-71] |
| 3 nM | C[C@H]1CN(C)CCCN1c1cc(N2CCN(C)CC2)nc(-c2onc3c2CCC[C@@]32CCCc3sc(N)c(C#N)c32)n1 [I-7] |
| 1 nM | C[C@H](Oc1cc(N2C[C@H](C)N[C@@H](C)C2)nc(-c2onc3c2CCC[C@@]32CCCc3sc(N)c(C#N)c32)n1)[C@@H]1CCCN1C [I-6] |
| 3 nM | C[C@H](Oc1cc(N2CCOC3(CC3)C2)nc(-c2noc3c2CCC[C@@]32CCCc3sc(N)c(C#N)c32)n1)[C@@H]1CCCN1C [II-61] |
| 4 nM | C[C@H](Oc1cc(-n2cc(C3CC3)nn2)nc(-c2noc3c2CCC[C@@]32CCCc3sc(N)c(C#N)c32)n1)[C@@H]1CCCN1C [II-118] |
| 2 nM | C[C@H](Oc1cc(C2COCCO2)nc(-c2noc3c2CCC[C@@]32CCCc3sc(N)c(C#N)c32)n1)[C@@H]1CCCN1C (some centres unmarked) [II-95] |
